Measurements published in ChEMBL document CHEMBL6087424, “Opportunities and Challenges of Arginase Inhibitors in Cancer: A Medicinal Chemistry Perspective” (J Med Chem, 2024).

Columns and labels:
Arginase-1 [1] = target: T1, Arginase-1 (Homo sapiens, UniProt P05089); test: Binding affinity to human recombinant ARG1 assessed as inhibition constant
T1 sequence (P05089 whole entry): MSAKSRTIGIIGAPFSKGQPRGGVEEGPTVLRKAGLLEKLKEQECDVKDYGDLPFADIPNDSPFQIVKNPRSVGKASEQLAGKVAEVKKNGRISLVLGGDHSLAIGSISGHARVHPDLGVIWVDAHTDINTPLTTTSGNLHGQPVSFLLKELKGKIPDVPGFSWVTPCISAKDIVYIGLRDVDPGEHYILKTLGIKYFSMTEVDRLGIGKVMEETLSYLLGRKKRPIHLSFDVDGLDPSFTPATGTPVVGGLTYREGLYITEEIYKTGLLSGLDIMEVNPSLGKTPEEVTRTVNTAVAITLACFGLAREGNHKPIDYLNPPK

Arginase-1 [2] = target: T1, Arginase-1; test: Inhibition of ARG1 (unknown origin)
Arginase-1 [3] = target: T1, Arginase-1; test: Inhibition of N-terminal hexa-histidine full-length human ARG1 extracted from Escherichia coli BL21 (DE3) Rosetta competent cells
[4] = target: T2, Arginase-2, mitochondrial (Homo sapiens, UniProt P78540); test: Inhibition of human recombinant ARG2
T2 sequence (P78540 whole entry): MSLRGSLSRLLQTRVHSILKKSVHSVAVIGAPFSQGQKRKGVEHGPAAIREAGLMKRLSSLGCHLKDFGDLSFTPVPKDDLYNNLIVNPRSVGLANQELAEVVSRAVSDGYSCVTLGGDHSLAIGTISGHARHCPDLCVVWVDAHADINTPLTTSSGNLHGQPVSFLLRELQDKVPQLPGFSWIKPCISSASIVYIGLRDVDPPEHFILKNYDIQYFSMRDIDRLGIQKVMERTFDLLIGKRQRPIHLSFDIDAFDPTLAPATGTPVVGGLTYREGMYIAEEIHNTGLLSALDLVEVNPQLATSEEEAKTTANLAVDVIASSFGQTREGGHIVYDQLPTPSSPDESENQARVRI

[5] = target: T2, Arginase-2, mitochondrial; test: Inhibition of human recombinant ARG2 extracted from Escherichia coli
[6] = target: T2, Arginase-2, mitochondrial; test: Inhibition of ARG2 (unknown origin)

N[C@@H](CCCCC=O)C(=O)O
Ki (Arginase-1 [1]): 60 µM

CN[C@@H]1C[C@@H]2C[C@@](N)(C(=O)O)[C@@H](CCCB(O)O)[C@@H]2[C@H]1F
IC50 (Arginase-1 [2]): 6.9 nM

CC(C)(C)[C@H](N)C(=O)N[C@H]1CN[C@H](C(=O)O)[C@@H]1CCCB(O)O
IC50 (Arginase-1 [3]): < 1 nM

N[C@@H](CC/C=C/B(O)O)C(=O)O
IC50 [4]: 15 µM

CN(C)C[C@@H]1CC[C@@H](CCB(O)O)C[C@]1(N)C(=O)O
IC50 [5]: 39 nM

O=C(O)[C@@]1(CCCCB(O)O)CCCN1
IC50 [6]: 23 nM | IC50 (Arginase-1 [2]): 14.7 nM

N[C@@](CCCCB(O)O)(C(=O)O)C1CC(NCCCc2ccccc2)C1 (stereo partly drawn)
IC50 [6]: 26 nM
